# According to patent US11453666B2, “Autotaxin inhibitory compounds” (Cancer Research Technology Limited, priority 2015, dated 2022):
# Read-outs that look alike come from different tables or passages of the source.
# Biological target: human recombinant ATX (Homo sapiens, UniProt Q13822)
# Test: Autotaxin (ATX) activity Quanta Red assay
# Assay type: biochemical
# Details: read-out: Activity
# Summary of the method: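 Recombinant human ATX reaction stopped after 2 h with Quanta Red stop solution; fluorescence read at […]. Controls with DMSO, with and without ATX; IC50 in duplicate.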
# [1] = Table 2: additional compounds tested for ATX activity (Quanta Red Assay)
# [2] = Table 3: commercially available compounds tested for Autotaxin activity (Quanta Red assay)
IC50 [1] [nM],IC50 [2] [nM],SMILES
685,–,"O=C(CCc1nc2cccnc2n1Cc1cccs1)NCc1ccc(F)cc1 [Example 224, N-(4-Fluoro-benzyl)-3-(3-thiophen-2-ylmethyl-3H-imidazo[4,5-b]pyridin-2-yl)-propionamide]"
708,–,"CCOc1ccc(CCNC(=O)CCc2nc3cccnc3n2Cc2ccccc2)cc1 [Example 225, 3-(3-Benzyl-3H-imidazo[4,5-b]pyridin-2-yl)-N-[2-(4-ethoxy-phenyl)-ethyl]-propionamide]"
807,–,"O=C(CCc1nc2cccnc2n1Cc1cccs1)NCc1ccccc1 [Example 226, N-Benzyl-3-(3-thiophen-2-ylmethyl-3H-imidazo[4,5-b]pyridin-2-yl)-propionamide]"
3830,–,"COc1ccc(Cn2c(CCC(=O)Nc3ccc(F)cc3)nc3cccnc32)cc1 [Example 227, N-(4-Fluoro-phenyl)-3-[3-(4-methoxy-benzyl)-3H-imidazo[4,5-b]pyridin-2-yl]-propionamide]"
8810,–,"CCCCNC(=O)CCc1nc2cccnc2n1Cc1ccccc1 [Example 228, 3-(3-Benzyl-3H-imidazo[4,5-b]pyridin-2-yl)-N-butyl-propionamide]"
466,–,"COc1ccc(Cn2c(CCC(=O)NCCc3cccc(C)c3)nc3cccnc32)cc1 [Example 229, 3-[3-(4-Methoxy-benzyl)-3H-imidazo[4,5-b]pyridin-2-yl]-N-(2-m-tolyl-ethyl)-propionamide]"
688,–,"CSc1ccc(CCNC(=O)CCc2nc3cccnc3n2Cc2ccccc2)cc1 [Example 230, 3-(3-Benzyl-3H-imidazo[4,5-b]pyridin-2-yl)-N-[2-(4-methylsulfanyl-phenyl)-ethyl]-propionamide]"
200,–,"COc1ccc(Cn2c(CCC(=O)NCc3cccc(Cl)c3)nc3cccnc32)cc1 [Example 231, N-(3-Chloro-benzyl)-3-[3-(4-methoxy-benzyl)-3H-imidazo[4,5-b]pyridin-2-yl]-propionamide]"
596,–,"O=C(CCc1nc2cccnc2n1Cc1ccccc1)NCc1cccc(Cl)c1 [Example 232, 3-(3-Benzyl-3H-imidazo[4,5-b]pyridin-2-yl)-N-(3-chloro-benzyl)-propionamide]"
720,–,"COc1ccc(Cn2c(CCC(=O)NCc3ccc4c(c3)OCO4)nc3cccnc32)cc1 [Example 234, N-Benzo[1,3]dioxol-5-ylmethyl-3-[3-(4-methoxy-benzyl)-3H-imidazo[4,5-b]pyridin-2-yl]-propionamide]"
627,–,"Cc1ccc(CNC(=O)CCc2nc3cccnc3n2Cc2ccccc2)cc1 [Example 235, 3-(3-Benzyl-3H-imidazo[4,5-b]pyridin-2-yl)-N-(4-methyl-benzyl)-propionamide]"
–,406,"COc1ccc(Cn2c(CCC(=O)NCc3ccccc3)nc3cccnc32)cc1 [Example 236, N-Benzyl-3-[3-(4-methoxy-benzyl)-3H-imidazo[4,5-b]pyridin-2-yl]-propionamide, reference compound]"
–,227,"COc1ccc(Cn2c(CCC(=O)NCCc3ccccc3)nc3cccnc32)cc1 [Example 237, 3-[3-(4-Methoxy-benzyl)-3H-imidazo[4,5-b]pyridin-2-yl]-N-phenethyl-propionamide, reference compound]"
–,473,"COc1ccc(CNC(=O)CCc2nc3cccnc3n2Cc2ccccc2)cc1 [Example 238, 3-(3-Benzyl-3H-imidazo[4,5-b]pyridin-2-yl)-N-(4-methoxy-benzyl)-propionamide, reference compound]"
